We go through 2 compounds from patent publication EP0346108A2, “Anti-infective nucleosides” (THE WELLCOME FOUNDATION LIMITED, priority 1988, dated 1989).

Data set [1] is described as follows: Determination of oral bioavailability by urinary recovery as parent compound. As to conditions: gavage, 50 mg/kg; urine collected for 24 and 48 hours post-dose.
Experimental: Long Evans Rats were administered the compound to be tested by gavage at a dose of 50 mg/kg. The urine was collected for 24 and 48 hours post-dose, ultrafiltered, and analysed by reverse-phase high-pressure liquid chromatography. The oral bioavailability of the compound was expressed as the percent of the dose excreted in the urine as the parent unesterified compound.
The next data set concerns Vero cells. Kind of data set: Cell toxicity, cell growth inhibition assay (MTT uptake). It is filed as cell-based. As to conditions: 50% inhibition of cell viability at 96 hours. As for the experimental part: Cell toxicity is assessed in cell growth inhibition assay. Subconfluent cultures of Vero cells grown on 96-well microtiter dishes are exposed to different dilutions of drug, and cell viability determined daily on replicate cultures using uptake of a tetrazolium dye (MTT). The concentration required for a 50% inhibition of cell vaibility at 96 hours is termed CCID₅₀.

Data set [2] relates to Varicella Zoster Virus (VZV). Kind of data set: VZV plaque reduction assay in monolayers of MRC5 cells. It is filed as cell-based. As to conditions: MRC5 cells (human embryonic lung), read-out: ID₅₀(µm) VZV. How it is done:
Varicella Zoster Virus (VZV) is assayed in monolayers of MRC5 cells (human embryonic lung) in multiwell trays. Activity of compounds is determined in the plaque reduction assay, in which a cell monolayer is infected with a suspension of VZV. A range of concentrations of the compound to be tested (of known molarity) is then incorporated into the cell monolayer. Plaque numbers of each concentration are expressed as percentage of the control and a dose-response curve is drawn. From this curve the 50% inhibitory concentration (IC₅₀) is estimated.

A value given as a limit tells only on which side of the number the result lay.

Take `CC#Cc1cn([C@@H]2O[C@H](COC(=O)C(C)C)[C@@H](O)[C@@H]2O)c(=O)[nH]c1=O` [Example 1, 1-(5-0-Isobutyryl-β-D-arabinofuranosyl)-5-prop-1-ynyluracil]: the “Urinary Recovery (% of dose) as parent compound” value in data set [1] is given as 40.35 % of dose.
Regarding `CC#Cc1cn([C@@H]2O[C@H](COC(=O)[C@@H](N)C(C)C)[C@@H](O)[C@@H]2O)c(=O)[nH]c1=O` [Example 20, 5-Prop-1-ynyl-1-(5-0-L-valyl-β-D-arabinofuranosyl)uracil], the “Urinary Recovery (% of dose) as parent compound” value in data set [1] is 35.90 % of dose. Moreover, the CCID₅₀ with Vero cells is reported as greater than 500. Further, in data set [2], the IC50 is less than 1 µM.
